Read-outs that look alike come from different tables or passages of the source.
Test: Chemical stability in aqueous solutions, degradation followed by HPLC
Format: physicochemical
Description: The compounds were first dissolved in methanol (30%) or acetonitrile (50%) and then diluted to the final concentrations with water. The time-course of degradation was monitored by HPLC using an Agilent Technologies HPLC chromatograph 1200 Series equipped with a photo-diode array (PDA) detector, a binary-gradient high-pressure pump, and an automatic sampler. The column used was a LiChroCART® 125-4 LiChrospher® 100 RP-18 (5 μm, Merck Millipore) maintained at 25 °C. The solvents were (A) water + 0.1% formic acid and (B) acetonitrile, and the flow rate was 0.8 ml min^–1. The initial mobile phase, 95% A / 5% B, was held for 3 min and then ramped linearly to 100% B at 23 min and held for 5 min before resetting to the original conditions. The sample injection volume was 10 μl. PDA detection was by absorbance in the 200–600-nm wavelength range. Peak detection was at the optimum wavelength (254 nm) and peak areas were used for quantification. Initial and subsequent measurements of peak area attributable to the tested compound were used to fit exponential half-life curves and to calculate first-order rate constants. Stability data allowed for calculation of the time in hours for half of the tested compound to be hydrolysed (t1/2).
Natural and synthetic SLs are rather sensitive to hydrolysis at pH 7 and are readily decomposed through the cleavage of the D-ring at pH 9.38 ([Vurro et al., 2016]). Therefore, differences in activity among SL analogues may be attributed to their instability in the aqueous medium. In order to address this point, the stability in aqueous solutions of the newly synthesized SL-D-lactams was tested, and compared to the (+)-GR24 standard ([Kannan and Zwanenburg, 2014]; [Halouzka et al., 2018]). Two different conditions were considered, a 30% solution of MeOH in water and a 1:1 solution of acetonitrile in water. As expected, stability in MeOH was highly compromised for all compounds, but to a greater extent for analogues showing both the Michael acceptor function (enol ether bridge) and an unprotected N in the D-lactam ring, as for rac-3, rac-4, rac-5, and rac-7 (Table 1): after a few hours 50% of the compounds were degraded. This was not surprising from a chemical point of view, as the functional group in SL-D-lactams is an aminal, which is more prone to hydrolysis than the acetal of the natural SL skeleton. […] For rac-5, the NH compound in the EGO10 family, the half-life dropped to 2 h.

[1] = aqueous acetonitrile solution in HPLC vials, pH 6.7, 1:1 acetonitrile:water, 21 °C, pH 6.7, extrapolated from plots of peak area versus time, read-out: Half-life (t1/2, h) ACN:Water, 1:1 (converted)
[2] = aqueous methanol solution in HPLC vials, pH 6.7, 30% MeOH in water, 21 °C, pH 6.7, extrapolated from plots of peak area versus time, read-out: Half-life (t1/2, h) 30% MeOH (converted)
[3] = aqueous solutions in HPLC vials, summary statement in the discussion, read-out: Half-life time (t1/2), solvent not specified / depending on the solvent

SMILES | half-life at 200 μg ml^–1 [1] [h] | half-life at 200 μg ml^–1 [2] [h] | half-life at 200 μg ml^–1 [3] [h]
CC1=C[C@H](O/C=C2/C(=O)O[C@H]3c4ccccc4C[C@@H]23)NC1=O (racemic) [rac-4] | 4.4 | ~3 | –
CC1=CC(C2Cc3c(n(C)c4ccccc34)C2=O)NC1=O (racemic) [rac-9] | 2900 | 1100 | 1000 to 3000
CC1=C[C@H](O/C=C2/C(=O)O[C@@H]3c4ccccc4C[C@H]23)NC1=O (racemic) [rac-3] | 3.8 | ~3 | < 4

Reference: article PMC5913603, “Structure–activity relationships of strigolactones via a novel, quantitative in planta bioassay” (Journal of Experimental Botany, 2018)
